Data: patent publication US20250262139A1, “POLYPEPTIDES AND METHODS FOR IMPROVING SKIN CONDITIONS” (INTERK PEPTIDE THERAPEUTICS LIMITED, priority 2020, published 2025)
Where no end group is shown, it is not given here.

Tests used:
[1] = test system: MM1418-C1 lightly pigmented melanoma cells; experiment: melanin content after UVB, melanoma cells; type: cell-based; conditions: 10 μM for 24 hours prior to 2 kJ/m2 UVB; measured 24 hours later; relative to untreated UVB cells
Experimental: In brief, MM1418-C1 lightly pigmented melanoma cells or human primary melanocytes were grown in 24 well culture plates and treated with 10 μM
RSKAKNPLYRRRRRRRRR (“IK-3”) for 24 hours prior to being exposed to 2 kJ/m2 UVB radiation. Controls (not treated with RSKAKNPLYRRRRRRRRR) labelled “Con” and “UVB”, respectively, were exposed to either 0 or 2 KJ/m2 UVB radiation. Cell groups were returned to the incubator for 24 hours and then the levels of melanin and protein in the cells were measured spectrophotometrically. In each experiment triplicate samples were measured. Data shown in FIG. 19 indicate the average values+SEM (μg melanin/mg cell protein) exposed to 0 or 2 KJ/m2 UVB which had been pre-treated with 0 or 10 μM of RSKAKNPLYRRRRRRRRR 24 hours prior to being exposed to UVB radiation. The t-test (2-tailed) was used to determine statistical significance, *p<0.05, ***p<0.001.

CREB-S133 = experiment: CREB phosphorylation by western blot in keratinocytes after solar simulated UV; type: cell-based; conditions: 0.1 μM, 1 μM and 5 μM added immediately following ssUV irradiation
Experimental: The influence of the polypeptide IK34720 (SEQ ID NO: 3) on CREB phosphorylation was assessed using the following protocol.
Keratinocytes were harvested and cultured as previously described (Gupta et al., J Invest Dermatol, 2007, 127 (3): 707-215). Keratinocytes, (passages 1-5) from 3 independent donors were used in the experiments illustrated in FIG. 3.
Positive control treatment (denoted “D” in FIG. 3) was prepared by solubilizing Calcitriol (1,25-dihydroxyvitamin D3 (1,25 (OH)2D3)-Cayman Chemical, MI, USA) in 100% spectroscopic ethanol (Merck, Darmstadt, Germany) and the final concentration was determined by spectroscopy (NanoDrop 2000, Thermo Fisher Scientific, MA, USA). The polypeptide IK34720 (SEQ ID NO: 3) was solubilised in phosphate buffered saline (PBS) to a concentration of 1 mM at pH 7.2. A vehicle (denoted as “V” in FIG. 3) constituting 0.1% (v/v) spectroscopic ethanol and 0.1% (v/v) PBS was prepared for use as a negative control.
Cultured cells were irradiated by solar simulated UV-irradiation (ssUV) using an Oriel 1000W xenon-arc lamp (Stratford, CT, USA). Irradiation was administered at an energy level of 400 mJ/cm^2 for UVB and 3600 mJ/cm^2 for UVA (total 4000 mJ/cm^2), measured by an OL754 radiometer (Optronics Laboratories Inc., Orlando, FL). This dosage equates to approximately 4 min irradiation of the sun at 12 noon in October in Sydney, Australia. […]

Skh: hr1 hairless mice = experiment: 8-OHdG (8oxodG) immunohistochemistry in UV-irradiated mouse skin; type: in vivo; conditions: topical immediately after 3 MED UVR; IK34720 20, 100 or 200 μg, Calcitriol 11.4 pmol/cm2; biopsy 3 h post-UVR; vs vehicle
Experimental: 8-hydroxy-2′-deoxyguanosine or 8-oxo-7,8-dihydro-2′-deoxyguanosine (8-OHdG/8-oxodG) is one of the predominant forms of free radical-induced in oxidative lesions with the concentrations of 8-OHdG within a cell being a measurement of oxidative stress. The role of the polypeptide IK34720 (SEQ ID NO: 3) in UV-induced oxidative stress was assessed using the following protocol.
Female Skh: hr1 hairless mice were exposed to solar simulated UV-irradiation (UVR) by exposure to one fluorescent UVB tube (Philips TL40W 12R/S, Eindhoven, The Netherlands) in combination with 6 UVA tubes (Hitachi 40W F40T 10/BL, Tokyo, Japan). The UVA and UVB irradiation was filtered through a 0.125 mm cellulose acetate sheet (Grafix Plastics, Cleveland, OH) as previously described (Dixon K M et al., Biochem Mol Biol, 2007, 103 (3-5): 451-6). […]
Biopsies were taken from UV-irradiated dorsal skin 3 h post-UVR and fixed in Histochoice fixative (Amresco, Solon OH) for 6 h. […] Sections were subjected to routine hematoxylin and eosin staining for visualization of sunburn cells at 40× magnification, and the number of sunburn cells per linear millimetre of skin section recorded.
Levels of 8-oxo-2′-deoxyguanosine (8oxodG) indicative of oxidative stress were detected by immunohistochemistry and image analysis (Dixon K M et al., Cancer Prev Res 2011, 4 (9): 1485-94) as set out below. […]

RSKAKNPLYRRRRRRRRR (not fully specified (some residues)) [IK34720]
melanin content [1]: significantly decreased melanin content
UV-induced phosphorylation of serine at position 133 of CREB (CREB-S133): inhibits UV-induced phosphorylation
8-OHdG formation in the skin (Skh: hr1 hairless mice): inhibits 8-OHdG formation
